This is an account of results in patent US9611223B2, “3-aryl-5-substituted-isoquinolin-1-one compounds and their therapeutic use” (INSTITUTE OF CANCER RESEARCH: ROYAL CANCER HOSPITAL (THE), priority 2013, dated 2017).

One experiment deals with HT55 cells. Briefly: Long-Term Clonogenic Assay (HT55 cells). Type of experiment: cell-based. The note with it: Homo sapiens, 12-14 days, read-out: cell inhibitory SF50 (HT55). How it is done:
Clonogenic Inhibition in DLD1 or HT55 Cells
In order to determine the efficacy of chronic dosing of putative TNKS inhibitors, long term clonogenic or ‘colony formation’ assays were carried out. This included the sparse seeding of cells in a 6-well dish followed by continuous dosing of cells over 12-14 days (depending on relative cell growth). Appropriate cell lines (DLD1 or HT55) were seeded at 500 cells/well in a 6-well dish in DMEM supplemented with FBS. After overnight incubation, cells were treated with the appropriate putative TNKS inhibitor at 10 μM, 3 μM, 1 μM, 0.30 μM, 0.1 μM and 0 μM at 0.2-1% final DMSO concentration (cell line dependent) in DMEM supplemented with 10% FBS (DLD1 cells were dosed in DMEM supplemented with 0.5% FBS). Dosages were carried out in triplicate. Cell media containing compound or DMSO only was replenished every 48 hours. On termination of the assay, plates were read with Cell Titre Glo reagent and luminescence measured on an appropriate plate reader.
The data was normalised to the DMSO control and was expressed as surviving fraction as a function of inhibitor dose. Dose response curves used to determine SF50 values were Log transformed and analysed by non-linear regression analysis (variable slope) using Prism (GraphPad Software, Inc).

The test system of a further experiment is COLO320DM cells. Kind of experiment: Tumour Cell Inhibition Assay (COLO320DM cells). It is filed as cell-based. As to conditions: Homo sapiens, COLO 320DM, 120 h, five day exposure, read-out: cell inhibitory SF50 (COLO320DM).
The target in another experiment is T1, TNKS1 (Homo sapiens, UniProt O95271, M1266I).
T1 construct: expresses the active PARP domain of TNKS1 as a polyhistidine tagged protein; made in house; host or cells: E. coli Rosetta2(DE3)
Kind of experiment: TNKS1/PARP Biochemical Assay.

T1 sequence (O95271 1112-1317 M1266I): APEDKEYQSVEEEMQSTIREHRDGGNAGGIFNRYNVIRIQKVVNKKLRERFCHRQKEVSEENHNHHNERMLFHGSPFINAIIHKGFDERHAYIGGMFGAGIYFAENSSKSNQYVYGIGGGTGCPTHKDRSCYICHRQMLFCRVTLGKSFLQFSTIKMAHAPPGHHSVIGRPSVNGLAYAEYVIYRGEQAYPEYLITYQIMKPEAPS

For the compound `CN1CCN(Cc2ccc(-c3cc4c(C#N)cccc4c(=O)[nH]3)cc2)CC1` [IQ-002, 3-[4-(4-Methyl-piperazin-1-ylmethyl)-phenyl]-1-oxo-1,2-dihydro-isoquinoline-5-carbonitrile], the IC50 was under 5 µM in the experiment on HT55 cells, under 5 µM with COLO320DM cells and under 50 nM on TNKS1.
As to `CN(C)C1CCN(Cc2ccc(-c3cc4c(C#N)cccc4c(=O)[nH]3)cc2)C1` (stereo not drawn) [IQ-011], the IC50 with HT55 cells is under 5 µM; in the experiment with COLO320DM cells, under 5 µM; against TNKS1, under 100 nM.
With `CN(C)C1CCN(Cc2ccc(-c3cc4c(C#N)cccc4c(=O)[nH]3)cc2)CC1` [IQ-012], the IC50 is under 5 µM with HT55 cells, under 5 µM in the experiment with COLO320DM cells and under 50 nM on TNKS1.
With `CN1CCN(Cc2ccc(-c3cc4c(C#N)cc(F)cc4c(=O)[nH]3)cc2)CC1` [IQ-014], the IC50 in the experiment with HT55 cells is under 5 µM; with COLO320DM cells it was under 5 µM; against TNKS1, under 100 nM.
